Experimental data reported in ChEMBL document CHEMBL2074549, “Regulation of 2-acetylaminofluorene-and 3-methylcholanthrene--mediated induction of multidrug resistance and cytochrome P450IA gene family expression in primary hepatocyte cultures and rat liver” (Mol Carcinog, 1991).

Legend:
[1] = biological target: Multidrug resistance protein 1a (Rattus norvegicus) (UniProt Q6PSM0); experiment: TP_TRANSPORTER: Western blot, primary hepatocytes; assay type: functional, cell-based; conditions: Hepatocyte
[2] = biological target: ATP-dependent translocase ABCB1 (Rattus norvegicus, UniProt P43245); experiment: TP_TRANSPORTER: Northern blot from primary hepatocytes; assay type: functional, Hepatocyte
ATP-dependent translocase ABCB1, sequence (P43245 whole entry): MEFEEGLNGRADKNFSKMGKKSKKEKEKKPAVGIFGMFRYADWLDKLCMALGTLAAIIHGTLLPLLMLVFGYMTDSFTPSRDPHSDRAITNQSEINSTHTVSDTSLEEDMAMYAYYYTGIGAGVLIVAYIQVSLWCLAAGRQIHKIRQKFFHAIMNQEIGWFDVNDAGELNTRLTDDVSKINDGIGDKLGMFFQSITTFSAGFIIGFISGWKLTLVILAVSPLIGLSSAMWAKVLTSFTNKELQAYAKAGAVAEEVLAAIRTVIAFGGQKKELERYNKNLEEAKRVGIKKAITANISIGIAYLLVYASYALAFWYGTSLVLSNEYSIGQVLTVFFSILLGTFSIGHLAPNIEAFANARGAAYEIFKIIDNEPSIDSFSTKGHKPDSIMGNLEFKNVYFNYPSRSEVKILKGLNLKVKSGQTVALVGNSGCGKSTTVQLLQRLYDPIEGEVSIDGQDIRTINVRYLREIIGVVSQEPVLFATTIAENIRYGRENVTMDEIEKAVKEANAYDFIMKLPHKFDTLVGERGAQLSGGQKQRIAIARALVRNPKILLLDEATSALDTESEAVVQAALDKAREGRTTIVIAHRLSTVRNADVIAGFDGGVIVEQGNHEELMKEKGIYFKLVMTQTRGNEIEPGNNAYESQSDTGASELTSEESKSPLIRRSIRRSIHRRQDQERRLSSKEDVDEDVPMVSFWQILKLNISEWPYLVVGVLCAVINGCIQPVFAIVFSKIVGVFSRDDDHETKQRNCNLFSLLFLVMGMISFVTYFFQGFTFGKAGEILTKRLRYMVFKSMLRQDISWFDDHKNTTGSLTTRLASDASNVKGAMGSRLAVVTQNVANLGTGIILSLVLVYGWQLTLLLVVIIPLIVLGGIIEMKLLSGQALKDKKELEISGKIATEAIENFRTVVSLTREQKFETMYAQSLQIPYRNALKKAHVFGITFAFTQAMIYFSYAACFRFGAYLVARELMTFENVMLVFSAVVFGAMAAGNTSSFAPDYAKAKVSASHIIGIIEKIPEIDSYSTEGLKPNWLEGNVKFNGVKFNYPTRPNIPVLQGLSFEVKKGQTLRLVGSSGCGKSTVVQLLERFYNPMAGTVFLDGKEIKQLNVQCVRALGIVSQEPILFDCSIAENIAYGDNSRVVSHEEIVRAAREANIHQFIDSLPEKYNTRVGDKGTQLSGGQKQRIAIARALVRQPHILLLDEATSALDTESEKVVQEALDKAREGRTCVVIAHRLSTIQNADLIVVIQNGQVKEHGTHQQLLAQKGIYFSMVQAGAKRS

Multidrug resistance protein 1a (Rattus norvegicus), sequence (Q6PSM0 as listed by the source): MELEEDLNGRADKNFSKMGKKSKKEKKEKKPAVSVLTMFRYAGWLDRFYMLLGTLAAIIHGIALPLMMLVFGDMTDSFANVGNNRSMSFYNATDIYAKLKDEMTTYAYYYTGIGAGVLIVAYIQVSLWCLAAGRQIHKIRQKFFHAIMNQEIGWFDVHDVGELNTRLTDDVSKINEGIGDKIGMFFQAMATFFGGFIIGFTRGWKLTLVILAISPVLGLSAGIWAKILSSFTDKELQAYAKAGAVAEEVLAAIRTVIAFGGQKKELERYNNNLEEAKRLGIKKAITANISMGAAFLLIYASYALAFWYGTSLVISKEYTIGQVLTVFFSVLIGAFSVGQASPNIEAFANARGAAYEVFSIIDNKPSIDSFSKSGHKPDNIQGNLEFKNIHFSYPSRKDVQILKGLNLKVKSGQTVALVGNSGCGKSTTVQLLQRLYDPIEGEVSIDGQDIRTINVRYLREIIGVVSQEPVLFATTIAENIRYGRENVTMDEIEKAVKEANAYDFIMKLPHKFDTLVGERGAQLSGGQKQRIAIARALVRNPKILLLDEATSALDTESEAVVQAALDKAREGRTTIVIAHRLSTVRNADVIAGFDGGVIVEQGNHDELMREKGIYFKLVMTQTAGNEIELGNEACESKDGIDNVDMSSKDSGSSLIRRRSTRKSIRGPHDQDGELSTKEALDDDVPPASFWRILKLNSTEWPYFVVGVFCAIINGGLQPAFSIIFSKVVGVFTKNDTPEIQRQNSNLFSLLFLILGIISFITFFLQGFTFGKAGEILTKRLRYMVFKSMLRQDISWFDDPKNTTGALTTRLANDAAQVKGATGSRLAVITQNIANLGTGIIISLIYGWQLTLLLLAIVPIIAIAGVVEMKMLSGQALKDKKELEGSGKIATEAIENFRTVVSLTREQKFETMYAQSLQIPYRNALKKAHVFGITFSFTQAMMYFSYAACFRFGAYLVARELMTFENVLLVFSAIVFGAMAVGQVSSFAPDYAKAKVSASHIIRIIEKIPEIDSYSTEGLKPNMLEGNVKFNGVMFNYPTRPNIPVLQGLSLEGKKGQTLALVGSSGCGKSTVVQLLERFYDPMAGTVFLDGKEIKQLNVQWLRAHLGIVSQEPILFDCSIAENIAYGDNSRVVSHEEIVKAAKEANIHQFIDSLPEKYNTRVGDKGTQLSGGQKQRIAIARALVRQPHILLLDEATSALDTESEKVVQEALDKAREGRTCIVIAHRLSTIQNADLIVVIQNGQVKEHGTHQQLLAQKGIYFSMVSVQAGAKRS

SMILES	Activity [1]	Activity [2]
CC(=O)Nc1ccc2c(c1)Cc1ccccc1-2	inducer [+]	–
Cc1ccc2cc3c(ccc4ccccc43)c3c2c1CC3 [3-METHYLCHOLANTHRENE]	inducer [+]	inducer [+]
